Data from PMC7044277 (Nature Communications, 2020).
Where “and” joins values, the source holds several entries; their conditions need not be identical. Equal entries are not always repeated.

Legend:
Assay type in all cases: cell-based
320 non-olfactory GPCRs [1] = molecular target: T1, 320 non-olfactory GPCRs (Homo sapiens, UniProt P0DMS8)
T1 construct: expressed in transfected cells; host or cells: HTLA cells

320 non-olfactory GPCRs [2] = molecular target: T2, 320 non-olfactory GPCRs (Homo sapiens, UniProt Q8TDS5); settings: receptor OXER1; replicate values, Fig_4g
T2 construct: expressed in transfected cells; host or cells: HTLA cells
T2 sequence (Q8TDS5 whole entry): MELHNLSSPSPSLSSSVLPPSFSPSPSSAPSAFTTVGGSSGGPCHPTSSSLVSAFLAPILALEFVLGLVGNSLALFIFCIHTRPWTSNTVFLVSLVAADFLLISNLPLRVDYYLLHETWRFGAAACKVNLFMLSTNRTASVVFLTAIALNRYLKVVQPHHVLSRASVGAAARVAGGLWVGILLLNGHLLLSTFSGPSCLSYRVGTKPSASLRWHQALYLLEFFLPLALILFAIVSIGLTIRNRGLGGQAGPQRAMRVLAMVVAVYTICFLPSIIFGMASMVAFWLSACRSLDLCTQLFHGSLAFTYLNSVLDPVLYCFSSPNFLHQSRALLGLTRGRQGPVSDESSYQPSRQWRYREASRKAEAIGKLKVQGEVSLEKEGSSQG

320 non-olfactory GPCRs [3] = molecular target: T3, 320 non-olfactory GPCRs (Homo sapiens, UniProt P25024)
T3 construct: expressed in transfected cells; host or cells: HTLA cells
T3 sequence (P25024 whole entry): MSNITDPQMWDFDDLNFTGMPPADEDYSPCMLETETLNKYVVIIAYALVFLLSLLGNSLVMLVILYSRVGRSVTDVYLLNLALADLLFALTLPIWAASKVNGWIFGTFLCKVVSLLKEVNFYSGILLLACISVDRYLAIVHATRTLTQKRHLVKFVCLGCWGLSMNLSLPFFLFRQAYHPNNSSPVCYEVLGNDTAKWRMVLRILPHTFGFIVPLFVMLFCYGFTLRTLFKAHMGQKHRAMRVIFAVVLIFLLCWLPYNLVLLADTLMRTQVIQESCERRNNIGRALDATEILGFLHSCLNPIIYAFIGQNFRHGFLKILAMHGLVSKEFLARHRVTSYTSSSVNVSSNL

320 non-olfactory GPCRs [4] = molecular target: T4, 320 non-olfactory GPCRs (Homo sapiens, UniProt P32247)
T4 construct: expressed in transfected cells; host or cells: HTLA cells
T4 sequence (P32247 whole entry): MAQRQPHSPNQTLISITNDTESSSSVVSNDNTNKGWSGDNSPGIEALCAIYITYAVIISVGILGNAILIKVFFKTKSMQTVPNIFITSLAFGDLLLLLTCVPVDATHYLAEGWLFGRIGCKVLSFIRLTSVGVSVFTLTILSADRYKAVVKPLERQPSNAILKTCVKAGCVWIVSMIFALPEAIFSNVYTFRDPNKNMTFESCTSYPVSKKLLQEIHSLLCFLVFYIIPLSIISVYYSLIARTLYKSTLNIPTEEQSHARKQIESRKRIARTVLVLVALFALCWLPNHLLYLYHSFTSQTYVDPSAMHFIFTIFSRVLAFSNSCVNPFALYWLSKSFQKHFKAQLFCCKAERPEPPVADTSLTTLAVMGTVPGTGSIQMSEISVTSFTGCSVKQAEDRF
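Throughout, for Fold of Basal: compound tested at 1 µM final concentration.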
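Throughout, for GPCRome agonism screen response: fold over basal response of each receptor without drug.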

T1 sequence (P0DMS8 whole entry): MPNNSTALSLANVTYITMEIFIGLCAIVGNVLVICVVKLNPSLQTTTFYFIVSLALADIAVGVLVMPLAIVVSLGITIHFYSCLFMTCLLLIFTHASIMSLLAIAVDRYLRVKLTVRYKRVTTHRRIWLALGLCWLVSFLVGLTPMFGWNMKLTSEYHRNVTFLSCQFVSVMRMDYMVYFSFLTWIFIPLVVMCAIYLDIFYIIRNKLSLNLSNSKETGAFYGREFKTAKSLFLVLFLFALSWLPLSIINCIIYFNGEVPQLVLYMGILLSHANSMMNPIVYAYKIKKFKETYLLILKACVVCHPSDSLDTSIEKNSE

CCOc1cccc2cc(C(C)NCC3(O)CCCCC3)oc12 (stereo not shown) [O4LE6]
Fold of Basal (320 non-olfactory GPCRs [1]): 1.06 and 1.364 and 1.085 and 1.781 | GPCRome agonism screen response (320 non-olfactory GPCRs [2]): 0.5177 and 0.9727 and 1.432 and 1.135 | Fold of Basal (320 non-olfactory GPCRs [3]): 1.143 and 1.163 and 1.159 and 1.512 | Fold of Basal (320 non-olfactory GPCRs [4]): 1.192 and 1.354 and 1.033 and 1.091
